Entries after “also recorded” stand apart in the source; their conditions may differ.

The source of these data is patent US20260272933A1, “USE OF HETEROCYCLIC COMPOUND IN TREATMENT OF INTERSTITIAL PNEUMONIA” (SUZHOU KINTOR PHARMACEUTICALS, INC., priority 2023, published 2026).

One series concerns GLi1. In words: Western blot: degradation of TGF-β-induced GLi1 protein in A549 cells. The series is classed as cell-based, Human. The conditions noted are these: 24-hour treatment, FIG. 43. As to the method: (§1) Human lung carcinoma cells (A549 cell line) were purchased from Shanghai Cell Bank of Chinese Academy of Sciences.
(§2) The cells were cultured in RPMI (Roswell Park Memorial Institute)-1640 medium supplemented with 10% FBS (Fetal Bovine Serum) and 1% penicillin-streptomycin. The cell culture conditions were 5% CO2 and […] Upon reaching approximately 80% confluence, the cells were subcultured at a 1:3 ratio.
(§3) A549 cells in the exponential growth phase were digested and plated into 6-well plates at 1×10^6 cells per well. After one day of growth, TGF-β (transforming growth factor-β) and different concentrations of compound B-1-1 were added to culture the cells. Protein was extracted 24 hours after drug treatment.
(§4) After removing the culture medium from the 6-well plates, the cells were washed once with PBS (phosphate-buffered saline) and then trypsinized. The cells were collected in 1.5 mL microcentrifuge tubes by centrifugation. […]
(§5) The protein concentration was determined using a BCA Protein Assay Kit. […] After thoroughly mixing, the plate was incubated at 60° C. for 10 min, and the absorbance was measured at 562 nm. Record the readings and plot a standard curve based on the standard concentration gradient. The protein concentration of the samples was calculated by substituting the sample absorbance values into the standard curve. […]
In general terms: Immunoblotting shows a protein as a band on a membrane.

In a further series the test system is GLi2. Kind of series: Western blot: degradation of TGF-β-induced GLi2 protein in A549 cells. To be noted: 24-hour treatment, FIG. 43. In kind it is cell-based, Human. Here is the method: as §1, §2, §3, §4, §5
The next series relates to α-SMA. Kind of series: Western blot: degradation of TGF-β-induced α-SMA protein in A549 cells. In kind it is cell-based, Human. The conditions noted are these: 24-hour treatment, FIG. 43. As to the method:
as §1, §2, §3, §4, §5

In series [1] the test system is Bleomycin-induced unilateral pulmonary fibrosis model in SD rats. Kind of series: Bleomycin-induced unilateral pulmonary fibrosis model, HE staining injury and inflammation score of terminal bronchioles and small pulmonary arteries. The series is classed as in vivo. The conditions noted are these: for Injury Score of Terminal Bronchioles and Accompanying Small Pulmonary Arteries, At Margin Lesion / Injury Score of Terminal Bronchioles and Accompanying Small Pulmonary Arteries, Within Lesion: p.o., 28 days from Day 8, Mean ± SEM, p < 0.001 vs. Model group; for Injury Score of Terminal Bronchioles and Accompanying Small Pulmonary Arteries, At Margin Lesion: model group 5.44 ± 0.12; for Injury Score of Terminal Bronchioles and Accompanying Small Pulmonary Arteries, Within Lesion: model group 9.44 ± 0.22. The source says:
(§6) 55 SD rats were purchased from Zhejiang Charles River Laboratory Animal Technology Co., Ltd. and housed in the SPF-grade barrier system of KCl Biotechnology (Suzhou) Co., Ltd. The animal use certification number was SYXK (Su) 2017-0041, the temperature, humidity and light control system follows international standards.
(§7) Anesthesia: 1-2.5% isoflurane was used for respiratory anesthesia to maintain deep anesthesia of the animals.
(§8) After the rats were under surgical anesthesia, the experimental model was constructed according to the guidelines for establishing the unilateral pulmonary fibrosis model in KCl. The skin was shaved, locally disinfected, and then a layered incision was made to expose and preserve the trachea. Bleomycin (dose: 3 mg/kg) was administered via intratracheal instillation to induce left lung fibrosis. After confirming no bleeding, the incision was closed layer-by-layer using 2-0 silk surgical sutures. After the surgery, the animals were placed on a 37° C. electric heating pad until fully recovered. Normal feeding and drinking were confirmed before returning the animals to standard housing. Starting from the day of modeling, meloxicam (1 mg/kg) was administered subcutaneously once daily for three consecutive days for postoperative analgesia.
(§9) Prior to modeling, animals were randomly divided into five groups based on body weight, as follows: Sham model group (normal group) (n=10), model group (n=10), Nintedanib 100 mg/kg, qd group (n=10), Compound B-1-1 20 mg/kg, bid group (n=10), Compound B-1-1 40 mg/kg, bid group (n=10). The administration began on the 8th day after modeling. • Nintedanib: administered orally, once daily for 28 consecutive days; • Compound B-1-1: administered orally, twice daily for 28 consecutive days.
(§10) After euthanasia, animals were perfused systemically with pre-cooled PBS at 4° C. The lungs were collected, and the left lung lobes were perfused with formalin. Histopathological examinations were performed using HE staining and Masson Trichrome staining. HE staining was used to evaluate the extent of bronchial and small pulmonary artery injury and inflammation, while Masson Trichrome staining assessed the degree of pulmonary fibrosis.
(§11) The entire left lung was dehydrated and embedded in paraffin. Paraffin sections of the entire left lung were prepared at a thickness of 3 μm. HE-stained sections were used for pathological analysis and scoring of injury and inflammatory changes in terminal bronchioles and accompanying small pulmonary arteries within and surrounding the lesion (Tables 4-2 and 4-3). Masson Trichrome staining was performed on the left lung paraffin sections, and the stained sections were scanned using the Nano Zoomer Digital Pathology scanner (S210) to obtain whole-slide images. Ten areas of 1 mm^2 each were randomly selected within the lesion area, and semi-quantitative scoring was conducted under a double-blind condition according to the Ashcroft scoring system (Table 4-4).
(§12) Statistical analysis was performed using Prism 6.0 software. Data are expressed as mean±SEM (standard error). One-way ANOVA was used for the analysis, and Tukey's method was selected for the comparison of differences between groups; when comparing between two groups, a T-test was used for two-tailed detection; when p<0.05, there was a significant difference between the two groups. In cases where outliers were suspected due to large within-group variability, the Identify Outliers function in GraphPad Prism 6.0 was used to detect and exclude outlier values. For data analysis purposes, all relevant data from any animal excluded from the efficacy evaluation were also omitted from statistical analysis.

Series [2] has the same test system. Kind of series: Bleomycin-induced unilateral pulmonary fibrosis model, Masson Trichrome staining, Ashcroft fibrosis score of left lung. In kind it is in vivo. To be noted: for Fibrosis Score (Ashcroft), left lung: p.o., 28 days from Day 8, model group 3.79 ± 0.08, p < 0.001 vs. Model group.
Source text: as §6, §7, §8, §9, §10, §11, §12

Series [3] in a line: Body weight and clinical observations during the rat pulmonary fibrosis study. The series is classed as in vivo, SD rats. To be noted: Group 5, 40 mg/kg, after administration, FIGS. 44 and 45.
Source text: as §6
as §8, with “analgesia. […]” for “analgesia.”

Setting [4] is: both doses, 20 mg/kg and 40 mg/kg, twice daily from Day 8, p<0.001.
Setting [5] is: 100 mg/kg, once daily from Day 8, p<0.001.

For `Cc1cnc(-c2cc(N3CCc4nc(N5CCC(O)CC5)ncc4[C@H]3C)ncc2Cl)c(C)c1` [Compound B-1-1], the “degradation of TGF-β-induced GLi1 protein (Western blot)” value with GLi1 is given as “effectively degraded”. Further, the “degradation of TGF-β-induced GLi2 protein (Western blot)” value with GLi2 was “effectively degraded”. Besides, the “degradation of TGF-β-induced α-SMA protein (Western blot)” value in the series on α-SMA is on record as “effectively degraded”. Moreover, the “Injury Score of Terminal Bronchioles and Accompanying Small Pulmonary Arteries, At Margin Lesion” value is reported as 3.50 ± 0.43 in series [1] (20 mg/kg, b.i.d.) and 3.14 ± 0.35 in series [1] (40 mg/kg, b.i.d.). In addition, the “Injury Score of Terminal Bronchioles and Accompanying Small Pulmonary Arteries, Within Lesion” value stood at 6.96 ± 0.46 in series [1] (20 mg/kg, b.i.d.) and 6.20 ± 0.47 in series [1] (40 mg/kg, b.i.d.). Further, the “inflammatory infiltration and pathological injury in terminal bronchioles and small pulmonary arteries within and at the margins of fibrotic lesions, compared to model group (in words)” value in series [1] (setting [4]) is given as “significantly decreased; also recorded: significantly improved”. Also, the “Fibrosis Score (Ashcroft), left lung” value is given as 2.93 ± 0.20 in series [2] (20 mg/kg, b.i.d.) and 2.62 ± 0.18 in series [2] (40 mg/kg, b.i.d.). Besides, in series [2] (40 mg/kg, BID, versus nintedanib 100 mg/kg, QD), the “effect in inhibiting the progression of pulmonary fibrosis lesions compared with positive drug nintedanib” value is on record as “same excellent effect”. For the same compound, the “pulmonary fibrosis scores / progression compared to the model group (in words)” value in series [2] (setting [4]) is given as “significantly reduced; also recorded: significantly inhibit”. For the same compound, the “body weight gain compared with the model group” value in series [3] is “slower rate of weight gain”.

Take `COC(=O)c1ccc2c(c1)NC(=O)/C2=C(\Nc1ccc(N(C)C(=O)CN2CCN(C)CC2)cc1)c1ccccc1` [Nintedanib, nintedanib, reference compound]: the “inflammatory cell infiltration and injury in terminal bronchioles and small pulmonary arteries within and surrounding fibrotic lesions, compared to model group (in words)” value in series [1] (setting [5]) is “significantly reduced; also recorded: amelioration”. In addition, in series [1] (100 mg/kg, q.d.), the “Injury Score of Terminal Bronchioles and Accompanying Small Pulmonary Arteries, At Margin Lesion” value was 2.72 ± 0.17; the “Injury Score of Terminal Bronchioles and Accompanying Small Pulmonary Arteries, Within Lesion” value is given as 6.24 ± 0.21. For the same compound, the “pulmonary fibrosis compared to the model group (in words)” value in series [2] (setting [5]) is on record as “significantly ameliorated; also recorded: significantly improved”. In series [2] (100 mg/kg, q.d.), the “Fibrosis Score (Ashcroft), left lung” value is reported as 2.57 ± 0.09.
